Data taken from US4195018A, “3-[(S)-1'-Phenylethylamino]propylaminobleomycin, non-toxic salt thereof, and method for producing same” (Nippon Kayaku Kabushiki Kaisha, priority 1977, dated 1980).
In brackets after ≈: the same amount, converted by molar mass. Several values for one entry are separate records, joined by “and”; a condition that tells them apart may be missing. Equal values may be shown once. Entries after “also recorded” stand apart in the source; their conditions may differ.

Legend:
[1] = tested on: Mycobacterium smegmatis ATCC 607 (Mycobacterium 607); experiment: Antimicrobial potency by the cup method, bleomycin A2 as standard; assay type: cell-based; settings: for Antimicrobial potency: product batches of the Examples, bleomycin A2 (copper-free form) = 1,000 u/mg; for Antimicrobial potency M. 607: bleomycin A2 standard = 1,000 U/mg
Protocol: (§1) The antimicrobial potency was assayed by the cup method against Mycobacterium 607 and Bacillus subtilis PCI by using bleomycin A2 as standard (1,000 U/mg).
[Note: The antimicrobial potency was assayed using Mycobacterium smegmatis ATCC 607 as assay organism and assuming the potency of bleomycin A2 (copper-free form) as 1,000 u/mg. The same applies hereinafter.]

[2] = Solubility (physicochemical properties); settings: solvents as named in the value
AH66 ascites hepatoma = experiment: Carcinostatic activity against ascites hepatoma (ascites type) in rats; assay type: in vivo, Donryu strain rats; settings: control = 100
Protocol: Each 1×10^6 AH66 cells were transplanted intraperitoneally into Donryu strain rats. After 24 hours, the test preparation was intraperitoneally administered once a day for 10 consecutive days. During a period of 30 days after the transplantation, the weight of each rat and the number of dead and survival were observed.

Bacillus subtilis PCI = experiment: Antimicrobial potency by the cup method, bleomycin A2 as standard; assay type: cell-based; settings: bleomycin A2 standard = 1,000 U/mg
Protocol: as §1

[3] = tested on: mouse Ehrlich cancer (solid tumor); experiment: Carcinostatic activity to mouse Ehrlich cancer (solid tumor); assay type: in vivo, ICR strain mice; settings: for Percentage inhibition: tumor weight on 15th day vs control; for ID50: Ehrlich solid tumor, 10 doses
Protocol: Each 2×10^6 cells were transplanted subcutaneously into the inguinal region of ICR strain mice (male, 6 weeks old). After 24 hours, each mouse was administered with test preparations in the same manner as described in 1-2 above. On the 15th day after the subcutaneous transplantation, tumors were removed from each mouse and compared the weight with that of tumors developed in the control group, which had received no treatment, to determine the percentage inhibition.

[4] = tested on: mouse squamous cell carcinoma induced by 20-methylcholanthrene; experiment: Inhibitory activity against mouse squamous cell carcinoma induced by 20-methylcholanthrene; assay type: in vivo, ddy strain mice; settings: for Mortality: 62.5 mcg/mouse i.p. twice a week for 15 weeks; for Percentage inhibition: inhibition of carcinogenesis vs control, 62.5 mcg/mouse i.p.
Source text: An acetone solution of 20-MC was topically applied to the sheared back of ddy strain mice (male, 10 weeks old), twice a week, for 18 weeks. After 5 weeks from the beginning of the 20-MC treatment, 62.5 mcg/mouse of the test preparation was intraperitoneally applied, twice a week, during a period of 15 weeks. Within the first week after completion of the administration of test preparation, the region where 20-MC had been applied was pathologically examined for the incidence of carcinogenesis.

lung of mice = experiment: Toxicity to the lung of mice (pulmonary fibrosis); assay type: in vivo, ICR strain mice; settings: for Grade: Relative value / Incidence: Relative value: Bleomycin complex = 1.0, 5 mg/kg i.p. x 10 days
Protocol: ICR strain mice (male, 15 weeks old), 12 in number per group, were used. […]. The dose was administered by intraperitoneal injection, once a day, for 10 consecutive days. After administration, the mice were bred for 5 weeks. After observation, the mice were slaughtered and autopsied to determine the extent of pulmonary fibrosis. […].

HeLa S3 cell = experiment: Action on cultivated HeLa S3 cell (growth inhibition); assay type: cell-based; settings: for ID50: percentage growth inhibition in 72 hours of culture
rats [5] = experiment: Acute toxicity in intraperitoneal route (LD50) in rats; settings: rat
rats [6] = tested on: rats
[7] = 3.12 mg/kg x 10 i.p., 30 days observation

| Structure (SMILES) | Antimicrobial potency [1] | Solubility [2] | Relative value of average survival days (AH66 ascites hepatoma; 0.19 mg/kg x 10 i.p.) | Relative value of average survival days (AH66 ascites hepatoma; 0.39 mg/kg x 10 i.p.) | Relative value of average survival days (AH66 ascites hepatoma; 0.78 mg/kg x 10 i.p.) | Relative value of average survival days (AH66 ascites hepatoma; 1.56 mg/kg x 10 i.p.) | Relative value of average survival days (AH66 ascites hepatoma; [7]) | Antimicrobial potency M. 607 [1] | Antimicrobial potency B. Sub. (Bacillus subtilis PCI) | Percentage inhibition ([3]; 0.03 mg/kg x 10) | Percentage inhibition ([3]; 0.1 mg/kg x 10) | Percentage inhibition ([3]; 0.3 mg/kg x 10) | Percentage inhibition ([3]; 0.9 mg/kg x 10) | Percentage inhibition ([3]; 2.7 mg/kg x 10) | ID50 [3] | Mortality [4] | Percentage inhibition [4] | Grade: Relative value (lung of mice) | Incidence: Relative value (lung of mice) | ID50 (HeLa S3 cell) | other results |
| --- | --- | --- | --- | --- | --- | --- | --- | --- | --- | --- | --- | --- | --- | --- | --- | --- | --- | --- | --- | --- | --- |
| CC(=O)O.CC(=O)O.Cc1c(N)nc([C@H](CC(N)=O)NC[C@H](N)C(N)=O)nc1C(=O)N[C@H](C(=O)N[C@H](C)[C@@H](O)[C@H](C)C(=O)N[C@H](C(=O)NCCc1nc(-c2nc(C(=O)NCCCN[C@@H](C)c3ccccc3)cs2)cs1)[C@@H](C)O)[C@@H](O[C@@H]1O[C@@H](CO)[C@@H](O)[C@H](O)[C@@H]1O[C@H]1O[C@H](CO)[C@@H](O)[C@H](OC(N)=O)[C@@H]1O)c1cnc[nH]1 | 7,620 u/mg | Soluble in water, methanol, acetic acid, DMSO, DMF; also recorded: sparingly soluble in dioxane; also recorded: insoluble in ethanol | – | – | – | – | – | – | – | – | – | – | – | – | – | – | – | – | – | – | – |
| Cc1c(N)nc(C(CC(N)=O)NCC(N)C(N)=O)nc1C(=O)NC(C(=O)NC(C)C(O)C(C)C(=O)NC(C(=O)NCCc1nc(-c2nc(C(=O)NCCCNC(C)c3ccccc3)cs2)cs1)C(C)O)C(OC1OC(CO)C(O)C(O)C1OC1OC(CO)C(O)C(OC(N)=O)C1O)c1cnc[nH]1.O=S(=O)(O)O (mixture of isomers) [RS form, 3-[(R,S)-1'-phenylethylamino]propylaminobleomycin monosulfate (copper-free form), reference compound] | – | – | 121 | 149 | 196 | 257 | 298 | 7535 U/mg | 1400 U/mg | 13 | 51 | 51 | 60 | 78 | 0.31 mg/kg/day | 1/12 | 47.8 | 0.49 | 0.63 | 0.80 µg/mL | LD50 (rats [5]): 150.6 mg(w)/kg |
| Cc1c(N)nc([C@H](CC(N)=O)NC[C@H](N)C(N)=O)nc1C(=O)N[C@H](C(=O)N[C@H](C)[C@@H](O)[C@H](C)C(=O)N[C@H](C(=O)NCCc1nc(-c2nc(C(=O)NCCCN[C@@H](C)c3ccccc3)cs2)cs1)[C@@H](C)O)[C@@H](O[C@@H]1O[C@@H](CO)[C@@H](O)[C@H](O)[C@@H]1O[C@H]1O[C@H](CO)[C@@H](O)[C@H](OC(N)=O)[C@@H]1O)c1cnc[nH]1.Cl.Cl.[Cu] [3-[(S)-1'-phenylethylamino]propylaminobleomycin dihydrochloride (copper-containing form)] | – | Soluble in water, methanol | – | – | – | – | – | – | – | – | – | – | – | – | – | – | – | – | – | – | – |
| Cc1c(N)nc([C@H](CC(N)=O)NC[C@H](N)C(N)=O)nc1C(=O)N[C@H](C(=O)N[C@H](C)[C@@H](O)[C@H](C)C(=O)N[C@H](C(=O)NCCc1nc(-c2nc(C(=O)NCCCN[C@@H](C)c3ccccc3)cs2)cs1)[C@@H](C)O)[C@@H](O[C@@H]1O[C@@H](CO)[C@@H](O)[C@H](O)[C@@H]1O[C@H]1O[C@H](CO)[C@@H](O)[C@H](OC(N)=O)[C@@H]1O)c1cnc[nH]1.Cl.Cl [NK631 dihydrochloride (copper-free form)] | 7,834 u/mg and 7,820 u/mg and 7,845 u/mg | Soluble in water, methanol, acetic acid, DMSO, DMF; also recorded: sparingly soluble in dioxane; also recorded: insoluble in ethanol | – | – | – | – | – | – | – | – | – | – | – | – | – | – | – | – | – | – | – |
| Cc1c(N)nc([C@H](CC(N)=O)NC[C@H](N)C(N)=O)nc1C(=O)N[C@H](C(=O)N[C@H](C)[C@@H](O)[C@H](C)C(=O)N[C@H](C(=O)NCCc1nc(-c2nc(C(=O)NCCCN[C@@H](C)c3ccccc3)cs2)cs1)[C@@H](C)O)[C@@H](O[C@@H]1O[C@@H](CO)[C@@H](O)[C@H](O)[C@@H]1O[C@H]1O[C@H](CO)[C@@H](O)[C@H](OC(N)=O)[C@@H]1O)c1cnc[nH]1.O=S(=O)(O)O [NK631 monosulfate (copper-free form), 3-[(S)-1'-phenylethylamino]-propylaminobleomycin monosulfate (copper-free form)] | 7,865 u/mg | Soluble in water, methanol, acetic acid, DMSO, DMF; also recorded: sparingly soluble in dioxane; also recorded: insoluble in ethanol | 116 | 163 | 216 | 269 | 296 | 7848 U/mg | 1550 U/mg | 19 | 24 | 39 | 68 | 84 | 0.35 mg/kg/day | 1/12 | 47.8 | 0.25 | 0.36 | – | Carcinostatic activity, times as high as that of the Bleomycin complex ([3]; relative to bleomycin complex): about 1.4 times; Fibrosis grade reduced to, as compared with RS form (lung of mice; relative to RS form): about 1/2; Fibrosis incidence reduced to, as compared with RS form (lung of mice; relative to RS form): about 1/2; Fibrosis grade reduced to, as compared with bleomycin complex (lung of mice; relative to bleomycin complex): 1/4; Fibrosis incidence reduced to, as compared with bleomycin complex (lung of mice; relative to bleomycin complex): 1/3; Subacute and chronic toxicity (dogs; dogs): comparable to Bleomycin complex; Toxicity to the lung (dogs; subacute and chronic toxicity study, species not stated separately): lower than that of the Bleomycin complex; LD50 (rats [5]): 155.0 mg(w)/kg; Subacute and chronic toxicity (rats [6]): comparable to Bleomycin complex |
| Cc1c(N)nc(C(CC(N)=O)NCC(N)C(N)=O)nc1C(=O)NC(C(=O)NC(C)C(O)C(C)C(=O)NC(C(=O)NCCc1nc(-c2nc(C(=O)NCCCNC(C)c3ccccc3)cs2)cs1)C(C)O)C(OC1OC(CO)C(O)C(O)C1OC1OC(CO)C(O)C(OC(N)=O)C1O)c1c[nH]cn1 [NK631, 3-[(S)-1'-phenylethylamino]propylaminobleomycin] | – | – | – | – | – | – | – | – | – | – | – | – | – | – | – | – | – | – | – | 0.82 µg/mL (≈ 0.556 µM) | Cell growth inhibition compared with Bleomycin complex (HeLa S3 cell; HeLa S3, 72 hours): twice as strongly as Bleomycin complex |
